Patent US20020099206A1, “Cephalosporin crystals and process for their preparation” (priority 1997, published 2002)

Experiment: stability of Compound (1a) under crystallization conditions (Comparative Test Examples 1 and 2)
Assay type: physicochemical
Method: Subsequently, stability of Compound (1a) under crystallization conditions was tested. The results are shown in the following Comparative Test Examples 1 and 2.
200 mg of oily 7-phenylacetamido-3-chloromethyl-cephem-4-carboxylic acid p-methoxybenzyl ester was dissolved in 0.2 ml of dimethylformamide. The solution was pored into 1 ml of methanol precooled to 3° C. to precipitate crystals. The mixture was stirred at 3 to 5° C. for 20 hours. Then, an ethyl acetate/water mixture was added to dissolve the crystals, and the solution was subjected to extraction. The organic layer was dried over sodium sulfate. The resulting solution was filtered, and the filtrate was concentrated under reduced pressure. The concentrate was purified by silica gel chromatography (Wako gel C-200, benzene/ethyl acetate=4/1), giving 197 mg of oily 7-phenylacetamido-3-chloromethyl-cephem-4-carboxylic-acid-p-methoxybenzyl ester (yield: 99%).
200 mg of oily 7-phenylacetamido-3-chloromethyl-cephem-4-carboxylic acid p-methoxybenzyl ester was dissolved in 0.2 ml of dimethylformamide. The solution was pored into 1 ml of methanol to precipitate crystals. The mixture was stirred at 30 to 35° C. for 20 hours. Then, an ethyl acetate/water mixture was added to dissolve the crystals, and the solution was subjected to extraction. The organic layer was dried over sodium sulfate. The resulting solution was filtered, and the filtrate was concentrated under reduced pressure.
For example, thin-layer chromatography of the obtained product (conditions: Merk Pre-Coated TLC Plates SILICA GEL 60F254 (Merk); benzene/ethyl acetate=4/1) developed color in zones corresponding to 7-phenylacetamide-3-chloromethyl-cephem-4-carboxylic acid p-methoxybenzyl ester (Compound (1a)) (Rf=0.46), 7-phenylacetamide-3-methoxymethyl-cephem-4-carboxylic acid p-methoxybenzyl ester (Compound A) (Rf=0.33) and decomposition product of Compound (1a) (Rf≈0, in the vicinity of the placing point). […]

[1] = dimethylformamide solution poured into uncooled methanol, stirred at 30 to 35° C. for 20 hours

Q: Which “7-phenylacetamido-3-chloromethyl-cephem-4-carboxylic acid p-methoxybenzyl ester recovered (yield)” value (dimethylformamide solution poured into methanol precooled to 3° C., stirred at 3 to 5° C. for 20 hours) does the source give for `COc1ccc(COC(=O)C2=C(CCl)CS[C@@H]3C(NC(=O)Cc4ccccc4)C(=O)N23)cc1` (stereo partly drawn) [Compound (1a), 7-phenylacetamido-3-chloromethyl-cephem-4-carboxylic acid p-methoxybenzyl ester] here?
A: 99%

Q: What about the “Compound (1a) recovered (yield)” value [1] of the same molecule?
A: 71%

Q: What about the “highly polar component Compound A formed (yield)” value [1] of the same molecule?
A: 9%
